Reference: US20260344670A1, “BIXLOZONE MIXTURES WITH PETHOXAMID” (FMC CORPORATION, priority 2022, published 2026)

What was measured:
Format in all cases: in vivo
weeds [1] = test: Example 3: pre-emergence weed control on corn at relatively high application rates of pethoxamid (Tables 8-11); details: 1200 g/ha pethoxamid
Description: [formula] • where ppm=milligrams of active ingredient (=a.i.) per liter of spray mixture X=% action by component A using p ppm of active ingredient Y=% action by component B using q ppm of active ingredient. If the ratio R defined as the action actually observed (O) divided by the expected action (E) is >1 then the action of the combination is superadditive, i.e. there is a synergistic effect. For a more detailed description of the Colby formula, see Colby, S. R. “Calculating Synergistic and Antagonistic Responses of Herbicide Combination”, Weeds, Vol. 15, pages 20-22; 1967; see also Limpel et al., Proc. NEWCC 16:48-53 (1962).
As used herein, rating timings correspond to the following: A1=weed assessment at BBCH 11-12; A2=4 weeks after the application; A3=when ZEAMX crop reaches BBCH 18 (row closure); and A4=BBCH 51-59 of the ZEAMX crop.
The herbicidal compounds bixlozone and pethoxamid were applied in a variety of forms and at a variety of amounts, application rates, and normalities. Efficacy of the herbicidal compositions was evaluated with reference to a scale of 0% to 100% in comparison with untreated control plots. 0 means no damage to the harmful plants and 100 means complete destruction of the harmful plants. Plants per square meter is indicated by “pl/m^2”, and grams per hectare is indicated by “g/ha”. […]

weeds [2] = test: Example 4: pre-emergence weed control on corn at relatively medium application rates of pethoxamid (Table 12); details: 800 g/ha pethoxamid
Procedure: (§1) The herbicidal compounds bixlozone and pethoxamid were applied in a variety of forms and at a variety of amounts, application rates, and normalities. Efficacy of the herbicidal compositions was evaluated with reference to a scale of 0% to 100% in comparison with untreated control plots. 0 means no damage to the harmful plants and 100 means complete destruction of the harmful plants. Plants per square meter is indicated by “pl/m^2”, and grams per hectare is indicated by “g/ha”. The acronym “EC” means emulsifiable concentrate (a liquid, homogenous formulation to be applied as an emulsion after dilution with water); “SC” means suspension concentrate (a stable suspension of active ingredient(s) with water as the fluid); “ZC” refers to a mixed formulation of CS and SC (a stable suspension of capsules and active ingredient(s) in a fluid, normally intended for dilution with water before use).
(§2) Various forms, compositions, and mixtures of bixlozone and pethoxamid were applied to corn before emergence. […] Mixtures of bixlozone with 800 g/ha pethoxamid improved weed spectrum on a range of broad leaf weeds (e.g., CHEAL and ABUTH) and grasses (e.g., ECHCG, DIGSA, and SETVI). Combinations of bixlozone and pethoxamid in pre-emergence applications were very safe with no clear pethoxamid rate effect.

weeds [3] = test: Example 5: pre-emergence weed control on corn at relatively low application rates of pethoxamid (Table 13); details: 300 g/ha pethoxamid
Procedure: as §1
as §2, with “300” for “800”, “SOLNI” for “CHEAL”, “ABUTH).” for “ABUTH) and grasses (e.g., ECHCG, DIGSA, and SETVI).”

CC1(C)CON(Cc2ccc(Cl)cc2Cl)C1=O [bixlozone]
efficacy (in words) (weeds [1]): minimal differences in performance between SC and CS were observed, except on CHEAL and ECHCG
efficacy (in words) (weeds [2]): minimal differences in performance between SC and CS were observed, except on CHEAL and ABUTH
efficacy (in words) (weeds [3]): minimal differences in performance between SC and CS were observed, except on POLSS, SOLNI, ABUTH, and ECHCG
